Patent US20240335503A1, “ROMIDEPSIN AS A THERAPEUTIC AGENT FOR NERVE-INJURY INDUCED NEUROPATHIC PAIN AND SPASTICITY” (The United States Government as represented by the …, priority 2021, published 2024)
Entries after “also recorded” stand apart in the source; their conditions may differ. Where two headings read alike, the source gives them in different places.

How the values were obtained:
[1] = tested on: primary cultured spinal cord dorsal horn neurons; assay: Dendritic spine density in primary cultured neurons with PAK1 inhibitor; assay type: cell-based; details: PAK1 inhibitor treatment; FIG. 11
Protocol: To assess whether PAK1 inhibition would disrupt dendritic spines, a morphological correlate of spasticity, the effect of a non-pharmaceutical grade PAK1 inhibitor, IPA3, on primary cultured spinal cord dorsal horn neurons was measured using previous methods (Tan et al., 2011).

[2] = tested on: adult mice; details: mouse, in vivo
Protocol: Rationale for Dosing: These initial romidepsin dosages were determined on two interrelated rationales. […] 2) Because it is expected that the utility of romidepsin for pain mitigation would likely require longer-term use than for the oncology indication, a pilot study in mice was performed with a lower dose of romidepsin for a prolonged period of time (once daily injections up to 14 days).

[3] = tested on: acetyl histone-H3; assay type: in vivo, mouse; details: vs control treated animal tissues; FIG. 17
Protocol: (§1) As detailed elsewhere herein, the feasibility of “repurposing” a clinically approved drug to address spasticity in SCI will be evaluated. Here, testing the efficacy of romidepsin, an FDA-approved drug, to reduce PAK1 activity in the spinal cord and SCI-induced spasticity has begun. […] Initial test dosages were calculated from human trial data using FDA guidelines for converting drug dosage from human to animal.
To monitor in vivo drug-response using established clinical biomarkers from all animals before and after treatment with romidepsin, histone acetylation was assessed in spinal cord tissue, peripheral blood mononuclear cells (PBMCs), and monocytes from CSF (i.e., ELISA pharmacodynamics assessment) (Cotto et al., 2010); VanderMolen et al., 2011). Liquid samples were collected using routine blood or spinal CSF draws.
(§2) To monitor in vivo drug-response using established clinical biomarkers from all animals before and after intrathecal treatment with romidepsin at MTD, histone acetylation in peripheral blood mononuclear cells (PBMCs) or lymphocytes/monocytes in CSF (i.e., ELISA pharmacodynamics assessment) will be assessed (Cotto et al., 2010; VanderMolen et al., 2011). […]

[4] = tested on: SCI-induced spasticity; assay: Evoked H-reflex EMG recordings (rate-dependent depression) in SCI spasticity model; assay type: in vivo, mouse
Protocol: as §1
Study Design: Four animal groups were prepared (adult m/f mix; 6-8 weeks old; n=60/group); 1) Sham+DMSO/vehicle, 2) Sham+Romidepsin, 3) SCI+DMSO/vehicle, and 4) SCI+Romidepsin. […]
H-reflex electrophysiology-EMG recordings of evoked H-reflex will be performed in the plantar muscle group (Bandaru et al., 2015; Benson et al., 2017; Boulenguez et al., 2010; Nielsen et al., 2007). […] Three trials (10 sweeps/trial) will be recorded for each paired-pulse. Rectified traces will be analyzed. […] The H/M ratio will be calculated using the peak amplitude of M-wave and H-reflex following the test pulse. H-reflex EMG studies provide specific readout only of the monosynaptic circuit, and is therefore an accurate measure of the spinal stretch reflex response without the confounds of supraspinal, interneuronal, or other motor neuron sub-type input (Nielsen et al., 2007).

[5] = tested on: acetyl histone-H3; details: injected intraperitoneally; within 24-hours post-administration; dorsal horn L4 (Guo et al., 2018); FIG. 25; cited from earlier work
[6] = tested on: p-Raf; assay: p-Raf expression in spinal cord neurons (histological analysis); assay type: in vivo, mouse; details: spinal cord after SCI; FIG. 16
Excerpt: Outcome Measures: On days 14, 28, and 35 post-SCI, spinal cord and brain tissue were collected for histological analyses. Tissue was processed using SWITCH clearing and immunohistochemistry performed to analyze protein expression levels of inflammatory markers, i.e., GFAP/OX42 for astro/microgliosis, cfos, p38, p-Raf, or PAK1 activity (Stamboulian et al., 2010); Tan et al., 2011; Tan et al., 2008). Because mice are Thy1-GFP transgenic animals, α-motor neurons were identified using established morphological criteria, including soma size and topographical location (Bandaru et al., 2015; Tan et al., 2012a). GFP-expressing dendritic spines were visualized, and their morphology profiled in association with spasticity. All data was statistically compared across groups (Bandaru et al., 2015; Zhao et al., 2016). To determine the efficacy of romidepsin treatments on SCI-induced spasticity, anatomical and biochemical data were correlated with spasticity outcomes. […]
as §2

[7] = tested on: humans; details: human, in vivo; cited from earlier work
[8] = cited from earlier work
[9] = Maximum tolerated dose in SCI mouse model (weight loss, paw grip-strength, mobility); assay type: in vivo; details: mouse, in vivo; once/day for 3 days; 10 μl per IP injection; diluted in 1% DMSO
Protocol: as §1
(§3) Vehicle (1% DMSO) was used as a control treatment.

[10] = tested on: SCI mouse model; assay: as above; assay type: in vivo
Protocol: as §1, §3

[11] = tested on: nerve injury-induced chronic pain; assay: Spared nerve injury (SNI) pain model, mechanical-evoked pain; assay type: in vivo; details: mouse SNI, IP once/day for 5 days at 0.25 mg/kg, FIG. 27
Excerpt: An SNI is a transection-type peripheral nerve injury model, whereby a portion of the sciatic nerve innervating the hindlimb is ligated and cut. In this nerve injury model, the common peroneal and tibial nerves are injured, producing consistent and reproducible pain hypersensitivity in the cutaneous territory of the spared sural nerve. Additionally, the SNI leads to prolonged mechanical and thermal hyperresponsiveness in behavioral studies, which closely mimic clinically-described neuropathic pain conditions (Cichon et al., 2018). With an SNI, adult mice rapidly develop maximal neuropathic pain sensitivity within 3 days post-SNI (Benson et al., 2020; Cichon et al., 2018).
To evaluate the efficacy of romidepsin in treating nerve-induced chronic pain, the following comparator groups were prepared (weight-matched, adult male/female equally mixed C57BL/6 mice): Sham (n=5), SNI+Vehicle (n=5), and SNI+romidepsin (n=5). Romidepsin was administered as an intraperitoneal (IP) injection for five consecutive days after SNI (once/day for 5 days: 5 μl per injection at 0.25 mg/kg). Vehicle administration route was the same as romidepsin (1% diluted in DMSO; IP route), and sham animals underwent all procedures except for nerve injury.

[12] = biological target: PAK1 (Homo sapiens, UniProt Q13153); details: cited from earlier work
PAK1, sequence (Q13153 whole entry): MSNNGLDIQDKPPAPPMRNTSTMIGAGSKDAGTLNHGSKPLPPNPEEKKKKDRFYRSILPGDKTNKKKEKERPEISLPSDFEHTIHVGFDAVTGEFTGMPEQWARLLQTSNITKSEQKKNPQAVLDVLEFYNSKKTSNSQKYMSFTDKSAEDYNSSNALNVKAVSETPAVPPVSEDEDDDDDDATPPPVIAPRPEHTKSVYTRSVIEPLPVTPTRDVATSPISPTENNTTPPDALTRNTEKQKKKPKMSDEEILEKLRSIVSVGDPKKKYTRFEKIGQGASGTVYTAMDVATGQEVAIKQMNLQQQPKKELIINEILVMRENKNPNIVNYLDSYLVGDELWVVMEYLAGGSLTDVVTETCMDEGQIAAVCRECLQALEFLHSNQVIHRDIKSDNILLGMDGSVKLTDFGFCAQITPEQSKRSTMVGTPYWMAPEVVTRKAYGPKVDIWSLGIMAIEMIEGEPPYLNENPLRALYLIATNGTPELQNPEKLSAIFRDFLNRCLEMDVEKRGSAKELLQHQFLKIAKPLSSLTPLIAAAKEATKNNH

Compound	dendritic spine density [1]	adverse effects (ambulation, body mass loss, outward signs of toxicity) [2]	food intake [2]	H3 density in spinal cord tissues [3]	RDD of H-reflex (spasticity) ([4]; SCI animals vs vehicle control, preliminary EMG studies, FIG. 13)	RDD of H-reflex (H/M ratio) ([4]; SCI mice, IP injection at 0.25 mg/kg vs control vehicle, FIG. 15, 0.25 mg/kg)	histone acetylation in neurons [5]	expression of p-Raf on Thy-YFP expressing cells (neurons) [6]	occurrence of adverse reactions (grade 3 or 4) related to weight loss and fatigue [7]	blood brain barrier (BBB) penetration ([8]; administered systemically in non-human primates or rodents/rats, drug and active metabolites)	half-life ([8]; depending on the organism (Berg et al., 2004))	half-life ([8]; published PK/PD studies (Berg et al., 2004))	half-life ([8]; published human PK/PD studies (Berg et al., 2004))	MTD at 3 days [9]	maximum tolerated dose (MTD) ([10]; SCI mouse model, once/day IP injection over 3 days, 0.1 ml)	body weight ([10]; mouse, in vivo)	paw-grip strength ([10]; mouse, in vivo)	mechanical-evoked pain [11]	concentrations that significantly reduce PAK1 kinase activity ([12]; Hirokawa et al., 2005, Maruta, 2011)	PAK1 protein level ([12]; at 0.1-1 nM)
Oc1ccc2ccccc2c1SSc1c(O)ccc2ccccc12 [IPA3]	decreases	–	–	–	–	–	–	–	–	–	–	–	–	–	–	–	–	–	–	–
C/C=C1\NC(=O)[C@H]2CSSCC/C=C/[C@H](CC(=O)N[C@H](C(C)C)C(=O)N2)OC(=O)[C@H](C(C)C)NC1=O [romidepsin]	–	no observable adverse effects	appeared the same	significant increase in H3 density	partially restored RDD; also recorded: partial reduction in spasticity	significant restoration of rate-dependent depression (RDD)	upregulation of histone acetylation in neurons; also recorded: upregulation in acetyl histone-H3 in neurons	significantly decreases	2-8%	can passively penetrate through the blood brain barrier (BBB) in relatively low concentrations	< 10 h	< 10 h	< 10 h	1.25 mg/kg	1.25 mg/kg/injection	does not affect	does not affect	significant decrease in mechanical-evoked pain; also recorded: significantly decreases mechanical-evoked pain	0.1 to 1 nM	without changing
